Data on 20 molecules can be found in ChEMBL document CHEMBL4390699, “Design, synthesis and biological evaluation of novel antitumor spirodihydrothiopyran-oxindole derivatives” (Bioorg Med Chem Lett, 2019).

In test [1] the test system is A549. The test is described as follows: Antiproliferative activity against human A549 cells assessed as inhibition of cell growth at 10 uM measured after 24 hrs by CCK8 assay relative to control. The following applies: A549, 24 h, read-out: GI. It is filed as functional.
Test [2] relates to HCT-116. The test is described as follows: Antiproliferative activity against human HCT116 cells assessed as inhibition of cell growth at 10 uM measured after 24 hrs by CCK8 assay relative to control. Type of test: functional. The following applies: HCT-116, 24 h, read-out: GI. A general note: Tetrazolium dyes change colour on reduction, which living cells bring about.
Test [3] relates to A549. The test can be described thus: Antiproliferative activity against human A549 cells measured after 24 hrs by CCK8 assay. It is filed as functional, cell-based. The following applies: A549, 24 h.
The subject of test [4] is MCF7. The test can be described thus: Antiproliferative activity against human MCF7 cells assessed as inhibition of cell growth at 10 uM measured after 24 hrs by CCK8 assay relative to control. Type of test: functional. The conditions noted are these: MCF7, 24 h, read-out: GI.
In test [5] the test system is A549. The test can be described thus: Cell cycle arrest in human A549 cells assessed as increase in accumulation at G0/G1-phase measured after 24 hrs by DNA-staining solution based flow cytometry. Type of test: functional.
For test [6], the system named is A549. The test can be described thus: cells. The conditions noted are these: Homo sapiens, A549, 48 h, read-out: Activity.
Description: Induction of apoptosis in human A549 cells assessed as viable cells at 10 uM measured after 48 hrs by annexin V-FITC/propidium iodide staining based flow cytometry (Rvb = 92.9%)
The subject of test [7] is A549. The test can be described thus: cells. The following applies: Homo sapiens, A549, 48 h, read-out: Activity. This is another data set of the same source.
Description: Induction of apoptosis in human A549 cells assessed as viable cells at 5 uM measured after 48 hrs by annexin V-FITC/propidium iodide staining based flow cytometry (Rvb = 92.9%)
Test [8] has as its system A549. The test can be described thus: Cell cycle arrest in human A549 cells assessed as decrease in accumulation at S-phase measured after 24 hrs by DNA-staining solution based flow cytometry. It is filed as functional. On the technique in general: A flow cytometer gives signals particle by particle.
Test [9] relates to MCF7. The test is described as follows: Antiproliferative activity against human MCF7 cells measured after 24 hrs by CCK8 assay. It is filed as functional, cell-based. The conditions noted are these: MCF7, 24 h.
Test [10] has as its system HCT-116. The test can be described thus: Antiproliferative activity against human HCT116 cells measured after 24 hrs by CCK8 assay. The following applies: HCT-116, 24 h. Type of test: functional, cell-based.
Test [11] has as its target E3 ubiquitin-protein ligase Mdm2 (Homo sapiens, UniProt Q00987). The test can be described thus: Inhibition of PMDM6-F probe binding to MDM2 (1 to 118 residues) (unknown origin) preincubated for 30 mins followed by PMDM6-F addition and measured after 1 hr fluorescence polarization assay. (In general: Fluorescence polarisation rises when a labelled molecule tumbles more slowly, as on binding a larger partner.)

The test system of test [12] is A549. The test can be described thus: Cell cycle arrest in human A549 cells assessed as decrease in accumulation at G2/M-phase measured after 24 hrs by DNA-staining solution based flow cytometry. It is filed as functional.
The test system of another test is HUVEC. The test is described as follows: Cytotoxicity against HUVEC measured after 24 hrs by CCK8 assay. It is filed as cell-based. The conditions noted are these: Homo sapiens.

Chain of E3 ubiquitin-protein ligase Mdm2 (Q00987 whole entry, the tested form may be a part): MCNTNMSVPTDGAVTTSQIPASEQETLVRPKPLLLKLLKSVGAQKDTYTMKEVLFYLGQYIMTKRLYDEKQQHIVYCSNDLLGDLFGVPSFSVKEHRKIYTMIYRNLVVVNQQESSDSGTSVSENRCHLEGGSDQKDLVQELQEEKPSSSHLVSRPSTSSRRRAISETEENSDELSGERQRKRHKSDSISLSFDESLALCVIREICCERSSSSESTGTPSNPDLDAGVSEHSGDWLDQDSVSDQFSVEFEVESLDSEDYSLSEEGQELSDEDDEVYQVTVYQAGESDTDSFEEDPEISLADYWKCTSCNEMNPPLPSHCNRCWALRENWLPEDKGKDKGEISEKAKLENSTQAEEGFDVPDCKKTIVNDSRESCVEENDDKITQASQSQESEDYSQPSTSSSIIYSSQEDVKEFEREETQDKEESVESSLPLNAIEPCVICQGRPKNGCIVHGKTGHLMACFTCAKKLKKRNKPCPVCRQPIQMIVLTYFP

For orientation: IC50 means the point on the concentration scale where inhibition reaches its midpoint. A high value points to weaker potency in that assay. As to `O=C(C1=CC[C@@H](c2ccccc2)[C@@]2(S1)C(=O)Nc1cc(F)ccc12)c1ccccc1`, the values for the inhibition of growth at 10 µM with A549 [1], in the test on HCT-116 [2] and with MCF7 [4] were 66%, 45.1% and 23.9%, respectively. Further, half-maximal inhibition in the test on A549 [3] (IC50) required 6.2 µM.

As for `COc1ccc(C2=N[C@H](c3ccc(Cl)cc3)[C@H](c3ccc(Cl)cc3)N2C(=O)N2CCNC(=O)C2)c(OC(C)C)c1`, the Activity result in the test on A549 [5] and with A549 [8] was “Dose-dependent effect” in each case. Further, the inhibition of growth at 10 µM was determined as 47% in the test with A549 [1], 64.4% with HCT-116 [2] and 32.8% with MCF7 [4]. Besides, the viability at 10 µM in the test with A549 [6] is 44.1%. Also, the viability at 5 µM in the test with A549 [7] is 45.9%. The IC50 was found to be 12.1 µM in the test on MCF7 [9] and 2.4 µM in the test on A549 [3].

Turning to `O=C(C1=CC[C@@H](c2ccc(Br)cc2)[C@@]2(S1)C(=O)Nc1cccc(Br)c12)c1ccccc1`, the inhibition of growth at 10 µM with A549 [1] amounted to 88.1%; in the test on HCT-116 [2] it was 86%; in the test with MCF7 [4] it was 52.7%. Moreover, the IC50 with HCT-116 [10] came to 5.9 µM; in the test with MCF7 [9], 8.8 µM; in the test on A549 [3], 1.5 µM.

With `COc1ccc(C(=O)C2=CC[C@@H](c3ccccc3)[C@@]3(S2)C(=O)Nc2cccc(Br)c23)cc1`, the inhibition of growth at 10 µM came to 74.3% in the test on A549 [1], 68.4% in the test on HCT-116 [2] and 36.9% with MCF7 [4]. Further, the results for the IC50 in the test on HCT-116 [10] and in the test on A549 [3] were 8.4 µM and 6 µM, respectively.

`COc1ccc(C(=O)C2=CC[C@@H](c3ccc(OC)cc3)[C@@]3(S2)C(=O)Nc2cccc(Br)c23)cc1`: the inhibition of growth at 10 µM in the test on A549 [1] worked out at 40.9%; with HCT-116 [2] it was 14.3%; in the test with MCF7 [4] it was 25.9%.

Regarding `COc1ccc(C(=O)C2=CC[C@@H](c3ccc([N+](=O)[O-])cc3)[C@@]3(S2)C(=O)Nc2cccc(Br)c23)cc1`, the inhibition of growth at 10 µM came out at 73.9% in the test on A549 [1], 48.1% in the test on HCT-116 [2] and 28.1% in the test on MCF7 [4]. The molecule further had a half-maximal inhibitory concentration (IC50) in the test with A549 [3] of 13.9 µM.

`O=C(C1=CC[C@@H](c2ccccc2)[C@@]2(S1)C(=O)Nc1ccc(F)cc12)c1ccccc1`: the inhibition of growth at 10 µM amounted to 74.2% in the test on A549 [1], 88.4% in the test on HCT-116 [2] and 63.9% in the test with MCF7 [4]. Further, the IC50 in the test on HCT-116 [10] was found to be 9.9 µM; in the test on MCF7 [9], 5.5 µM; with A549 [3] it was 4.3 µM.

As to `O=C(C1=CC[C@@H](c2ccccc2)[C@@]2(S1)C(=O)Nc1cc(Br)ccc12)c1ccccc1`, the inhibition of growth at 10 µM with A549 [1] stood at 67.6%; with HCT-116 [2], 80%; in the test on MCF7 [4], 54.5%. The IC50 came out at 9.6 µM with HCT-116 [10], 10.1 µM in the test on MCF7 [9] and 4.8 µM in the test on A549 [3].

As for `O=C(C1=CC[C@@H](c2ccccc2)[C@@]2(S1)C(=O)Nc1cccc(Br)c12)c1ccccc1`, the inhibition of growth at 10 µM with A549 [1] was 78.5%; in the test with HCT-116 [2] it was 45%; in the test on MCF7 [4] it was 24.3%. Half-maximal inhibition with A549 [3] (IC50) was put at 3.1 µM.

In the case of `O=C(C1=CC[C@@H](c2ccccc2)[C@@]2(S1)C(=O)Nc1ccccc12)c1ccccc1`, the inhibition of growth at 10 µM was determined as 57.6% in the test on A549 [1], 87.6% in the test on HCT-116 [2] and 51.7% in the test on MCF7 [4]. In addition, the IC50 in the test on HCT-116 [10] was 9.4 µM; with MCF7 [9], 10.7 µM; in the test with A549 [3], 6.3 µM.

In the case of `COc1ccc(C(=O)C2=CC[C@@H](c3ccc(Br)cc3)[C@@]3(S2)C(=O)Nc2cccc(Br)c23)cc1`, the results for the inhibition of growth at 10 µM with A549 [1], with HCT-116 [2] and in the test on MCF7 [4] were 19%, 10.8% and 18.5%, respectively.

For the molecule `O=C(C1=CC[C@@H](c2ccc(F)cc2)[C@@]2(S1)C(=O)Nc1cccc(Br)c12)c1ccccc1`, the results for the inhibition of growth at 10 µM in the test on A549 [1], with HCT-116 [2] and in the test with MCF7 [4] were 84.4%, 44.1% and 21.9%, respectively. Moreover, the IC50 with A549 [3] was 4.9 µM.

For `CC[C@@H]1CC=C(C(=O)c2ccc(OC)cc2)S[C@@]12C(=O)Nc1cccc(Br)c12`, the inhibition of growth at 10 µM with A549 [1] was found to be 46.9%; in the test on HCT-116 [2] it was 70.8%; with MCF7 [4], 72.9%. Also, the half-inhibitory concentration (IC50) in the test on MCF7 [9] worked out at 13.3 µM; in the test on A549 [3], 10.3 µM.

As for `CCC[C@@H]1CC=C(C(=O)c2ccc(OC)cc2)S[C@@]12C(=O)Nc1cccc(Br)c12`, the inhibition of growth at 10 µM turned out to be 44% in the test with A549 [1], 22.7% with HCT-116 [2] and 19.8% with MCF7 [4].

In general, Ki refers to a dissociation constant, usually derived from enzyme kinetics or from competition with a known ligand. For `O=C(C1=CC[C@@H](c2ccccc2)[C@@]2(S1)C(=O)Nc1cccc(Br)c12)c1ccco1`, the figures for the inhibition of growth at 10 µM with A549 [1], in the test on HCT-116 [2] and with MCF7 [4] were 87.1%, 92.1% and 92.8%, respectively. The IC50 came to 1.9 µM in the test on HCT-116 [10], 4.8 µM with MCF7 [9] and 4.5 µM in the test with A549 [3]. For the same molecule, the inhibition constant Ki in [11] worked out at 43.8 µM.

Take `O=C(C1=CC[C@@H](c2ccc(Br)cc2)[C@@]2(S1)C(=O)Nc1ccccc12)c1ccccc1`: the Activity result with A549 [5], in the test with A549 [12] and in the test on A549 [8] was “Dose-dependent effect” in each case. For the same molecule, the inhibition of growth at 10 µM turned out to be 75.1% in the test with A549 [1], 91.9% in the test with HCT-116 [2] and 69.4% in the test with MCF7 [4]. Further, the IC50 with HCT-116 [10] stood at 1.7 µM; in the test on HUVEC, 4.03 µM; in the test with MCF7 [9], 6.8 µM; in the test on A549 [3], 2.1 µM. Also, in the test on A549 [6], the viability at 10 µM came out at 29%. The Ki in test [11] was 19.8 µM. Moreover, the viability at 5 µM with A549 [7] was 35.7%.

As to `O=C(C1=CC[C@@H](c2ccccc2)[C@@]2(S1)C(=O)Nc1cccc(Br)c12)c1ccc(Br)cc1`, the inhibition of growth at 10 µM stood at 93.1% with A549 [1], 67.3% in the test with HCT-116 [2] and 77.7% with MCF7 [4]. The IC50 in the test with HCT-116 [10] came out at 2.6 µM; with MCF7 [9], 8.2 µM; in the test with A549 [3], 3.3 µM.

Turning to `O=C(C1=CC[C@@H](c2ccc(F)cc2)[C@@]2(S1)C(=O)Nc1ccccc12)c1ccccc1`, the inhibition of growth at 10 µM in the test on A549 [1] worked out at 72.3%; with HCT-116 [2] it was 91.1%; in the test with MCF7 [4], 58.8%. Moreover, the concentration for half-maximal inhibition (IC50) in the test on HCT-116 [10] is 2 µM; in the test on MCF7 [9] it was 14.1 µM; in the test on A549 [3], 6.3 µM.

Take `O=C(C1=CC[C@@H](c2ccc(Cl)cc2)[C@@]2(S1)C(=O)Nc1ccccc12)c1ccccc1`: the inhibition of growth at 10 µM in the test on A549 [1] is 72.5%; in the test on HCT-116 [2] it was 89.1%; in the test with MCF7 [4], 72.5%. Further, the IC50 stood at 2.8 µM in the test with HCT-116 [10], 8.5 µM in the test on MCF7 [9] and 3.9 µM in the test with A549 [3].

As to `O=C(C1=CC[C@@H](c2ccccc2)[C@@]2(S1)C(=O)Nc1cccc(Cl)c12)c1ccccc1`, the inhibition of growth at 10 µM in the test with A549 [1] stood at 65.4%; in the test with HCT-116 [2], 48.8%; with MCF7 [4] it was 43.9%. In addition, the half-inhibitory concentration (IC50) in the test on HCT-116 [10] and in the test on A549 [3] was 9.9 µM each time.
